Tested on: BphK-KKS
Assay: absorbance at […] nm, non-linear regression
Type: biochemical, Acidovorax sp. KKS102
Settings: GSH held constant, CDNB varied 0.3-2.1 mM, 50 mM sodium phosphate pH 6.5; read-out: CDNB / K m

Q: `O=[N+]([O-])c1ccc(Cl)c([N+](=O)[O-])c1` [CDNB, 1-chloro-2,4-dinitrobenzene] was tested. Which Km did it give?
A: 2580 ± 140 µM
